Measured values taken from patent US12550899B2, “Topramezone derivative and use thereof” (priority 2023, dated 2026).

Legend:
Assay type in all cases: in vivo
[1] = system: test weeds (grassy weeds, sedge, broadleaf weeds); test: Laboratory bioactivity efficacy test 2.1, symptoms on the test weeds; details: test 2.1 weeds
Description: (§1) Refer to the “Pesticides guidelines for laboratory bioactivity tests Part 4: Foliar spray application test for herbicide activity, NY/T 1155.4-2006”.
(§2) • grassy weeds: Setaria viridis, Chloris virgata; • sedge: Cyperus rotundus; • Broadleaf weeds: Amaranthus retroflexus, Chenopodium album, Acalypha australis, Commelina communis, Convolvulus arvensis, Cirsium setosum, and Eclipta prostrata. 2.1.3 Test Conditions
(§3) The soil used for the test was a mixture of surface 20 cm loam and vermiculite, mixed in a volume ratio of 3:1 to form a culture soil. The test corn was cultured in a glass greenhouse with a temperature ranging from 25° C. to 35° C. and under natural light.
(§4) A measured quantity of weed seeds were sown in plastic pots with a diameter of 9 cm, and covered with 1-2 mm of soil. The ports were then placed in enamel trays filled with water, and watered by bottom irrigation. After sowing, the pots were transferred to the glass greenhouse for cultivation and growth.
(§5) Five dosages were set for Compound I, Compound II and the control herbicide Topramezone, which were 3.75, 7.5, 15, 30 and 60 grams of active ingredient per hectare respectively. In addition, a blank control was also prepared.
(§6) The required amount of the herbicide was accurately measured out, an appropriate amount of emulsifier and organic solvent were added to dissolve the herbicide, and then a certain amount of water was added therein until the herbicide was diluted to the required dosage by using the serial dilution method for standby.
(§7) The fresh weight of each treatment was surveyed 14 days after the application of the herbicide. The fresh weight control efficacy was calculated according to the following formula: fresh weight control efficacy (%)=(control fresh weight−treatment fresh weight)/control fresh weight×100.

[2] = system: grassy weeds and broadleaf weeds; test: Laboratory bioactivity efficacy test 2.2, visual observation of weeds
Experimental: • grassy weeds: Digitaria sanguinalis, Eleusine indica, Echinochloa crusgalli; • Broadleaf weeds: Portulaca oleracea, Abutilon theophrasti medicus. 2.2.2 Test Conditions
The soil used for the test was a mixture of surface 20 cm loam and vermiculite, mixed in a volume ratio of 3:1 to form a culture soil. The test weeds were cultured in a glass greenhouse with a temperature ranging from 25° C. to 35° C. and under natural light.
Quantified seeds of Digitaria sanguinalis, Eleusine indica, Echinochloa crusgalli, Portulaca oleracea, and Abutilon theophrasti medicus were sown in plastic pots with a diameter of 9 cm, and covered with 1-2 mm of soil. The ports were then placed in enamel trays filled with water, and watered by bottom irrigation. After the water seeped to the soil surface, the pots were transferred to the glass greenhouse for standby.
as §5
The required amount of the herbicide was accurately measured out and directly added with water, which was diluted to the required dosage by using the serial dilution method for standby.
The test was conducted on grassy weeds at the two-leaf and one-heart stage, Abutilon theophrasti medicus at the 2-true-leaf stage, and Portulaca oleracea at the 3-5-leaf stage, with the stems and leaves both sprayed uniformly. The ASS-4 automatic control spraying system with a fan-shaped nozzle was used indoors for herbicide application. Depending on the nozzle pressure and flow rate, 50 mL of herbicide solution was applied to a spraying area of 1.1 m^2 (which was equivalent to the water consumption of 30 L per mu). The system's operating speed was calibrated. The plastic pots to be treated were arranged evenly on the spraying platform to ensure uniform treatment. The spray pressure was set to 0.35 MPa, and the flow rate of the fan-shaped nozzle was set to 800 mL/min. The spraying was carried out in sequence from the low dosage to the high dosage. Each treatment was repeated two to four times.
The herbicide was applied once. After spraying, the pots were air-dried for one day and then placed in the glass greenhouse. Regular watering was conducted to maintain moisture.
The damage symptoms of the weeds (such as growth inhibition, chlorosis, malformation, etc.) were carefully recorded at 3, 7, 10, and 20 days after herbicide application. A visual comparison of the herbicide effectiveness was made. At 20 days post-application, the fresh weight of the aboveground parts of the weeds from each treatment group was measured, and the fresh weight control efficacy was calculated.

Chloris virgata = test: Laboratory bioactivity efficacy test 2.1 (foliar spray); details: for GR50 / GR90: fresh weight control efficacy 14 days after application
Description: as §1, §2, §3, §4, §5, §6, §7
(§8) A DPS statistical software was used to conduct regression analysis on the logarithmic values of the herbicide dosage and the probit values of the corn fresh weight control efficacy, and the correlation coefficient, GR50, GR90, and the 95% confidence interval were calculated.

Amaranthus retroflexus = test: as above; details: for GR50 / GR90: fresh weight control efficacy 14 days after application
Description: as §1, §2, §3, §4, §5, §6, §7, §8

Cyperus rotundus = test: as above; details: for GR50 / GR90: fresh weight control efficacy 14 days after application
Description: as §1, §2, §3, §4, §5, §6, §7, §8

Commelina communis = test: as above; details: for GR50 / GR90: fresh weight control efficacy 14 days after application
Description: as §1, §2, §3, §4, §5, §6, §7, §8

Chenopodium album = test: as above; details: for GR50 / GR90: fresh weight control efficacy 14 days after application
Description: as §1, §2, §3, §4, §5, §6, §7, §8

Setaria viridis = test: as above; details: for GR50 / GR90: fresh weight control efficacy 14 days after application
Description: as §1, §2, §3, §4, §5, §6, §7, §8

Cirsium setosum = test: as above; details: for GR50 / GR90: fresh weight control efficacy 14 days after application
Description: as §1, §2, §3, §4, §5, §6, §7, §8

Eclipta prostrata = test: as above; details: for GR50 / GR90: fresh weight control efficacy 14 days after application
Description: as §1, §2, §3, §4, §5, §6, §7, §8

Acalypha australis = test: as above; details: for GR50 / GR90: fresh weight control efficacy 14 days after application
Description: as §1, §2, §3, §4, §5, §6, §7, §8

Convolvulus arvensis = test: as above; details: for GR50 / GR90: fresh weight control efficacy 14 days after application
Description: as §1, §2, §3, §4, §5, §6, §7, §8

[3] = 3 to 7 days after application, grassy weeds and broadleaf weeds like Portulaca oleracea

## COC(=O)OC(C)Oc1c(C(=O)c2ccc(S(C)(=O)=O)c(C3=NOCC3)c2C)cnn1C (stereo not shown) [Compound I, 1-((4-(3-(4,5-dihydroisoxazol-3-yl)-2-methyl-4-(methylsulfonyl)benzoyl)-1-methyl-1H-pyrazol-5-yl)oxy)ethyl methyl carbonate]
[1]
  Symptoms on the test weeds: clear pesticidal efficacy symptoms
[2]; [3]
  Visual observation of weeds: gradually became whitened and withered
[2]; 10 days after application
  Visual observation of weeds: excellent treatment effects
[2]; 20 days after application
  Visual observation of weeds: dried up and died
Chloris virgata
  Control efficacy compared with Topramezone (in words): better control efficacy
  Efficacy relative to that of Topramezone: approximately 1.5 times
  GR50: 2.25 g a.i./ha
  GR90: 10.81 g a.i./ha
Amaranthus retroflexus
  Control efficacy compared with Topramezone (in words): significantly better control efficacy
  Efficacy relative to that of Topramezone: approximately 2 times
  GR50: 2.86 g a.i./ha
  GR90: 5.64 g a.i./ha
Cyperus rotundus
  Control efficacy compared with Topramezone (in words): better control efficacy
  GR50: 11.78 g a.i./ha
  GR90: 29.57 g a.i./ha
Commelina communis
  Control efficacy compared with Topramezone (in words): significantly better control efficacy
  Efficacy relative to that of Topramezone: approximately 2 times
  GR50: 4.98 g a.i./ha
  GR90: 16.38 g a.i./ha
Chenopodium album
  Control efficacy compared with Topramezone (in words): significantly better control efficacy
  Efficacy relative to that of Topramezone: approximately 2 times
  GR50: 1.22 g a.i./ha
  GR90: 5.98 g a.i./ha
Setaria viridis
  Control efficacy compared with Topramezone (in words): better control efficacy
  Efficacy relative to that of Topramezone: approximately 1.5 times
  GR50: 3.96 g a.i./ha
  GR90: 11.42 g a.i./ha
Cirsium setosum
  Control efficacy compared with Topramezone (in words): significantly better control efficacy
  Efficacy relative to that of Topramezone: approximately 2 times
  GR50: 5.56 g a.i./ha
  GR90: 20.60 g a.i./ha
Eclipta prostrata
  Control efficacy compared with Topramezone (in words): significantly better control efficacy
  Efficacy relative to that of Topramezone: approximately 2 times
  GR50: 2.30 g a.i./ha
  GR90: 11.62 g a.i./ha
Acalypha australis
  Control efficacy compared with Topramezone (in words): significantly better control efficacy
  Efficacy relative to that of Topramezone: approximately 2 times
  GR50: 2.42 g a.i./ha
  GR90: 7.55 g a.i./ha
Convolvulus arvensis
  Control efficacy compared with Topramezone (in words): significantly better control efficacy
  Efficacy relative to that of Topramezone: approximately 2 times
  GR50: 1.81 g a.i./ha
  GR90: 31.82 g a.i./ha

## Cc1c(C(=O)c2cnn(C)c2OC(=O)C(C)(C)C)ccc(S(C)(=O)=O)c1C1=NOCC1 [Compound II, 4-(3-(4,5-dihydroisoxazol-3-yl)-2-methyl-4-(methylsulfonyl)benzoyl)-1-methyl-1H-pyrazol-5-yl pivalate]
[1]
  Symptoms on the test weeds: clear pesticidal efficacy symptoms
[2]; [3]
  Visual observation of weeds: gradually became whitened and withered
[2]; 10 days after application
  Visual observation of weeds: excellent treatment effects
[2]; 20 days after application
  Visual observation of weeds: dried up and died
Chloris virgata
  GR50: 4.41 g a.i./ha
  GR90: 15.22 g a.i./ha
Amaranthus retroflexus
  GR50: 4.64 g a.i./ha
  GR90: 11.19 g a.i./ha
Cyperus rotundus
  GR50: 15.68 g a.i./ha
  GR90: 39.11 g a.i./ha
Commelina communis
  GR50: 13.73 g a.i./ha
  GR90: 39.85 g a.i./ha
Chenopodium album
  GR50: 2.83 g a.i./ha
  GR90: 11.74 g a.i./ha
Setaria viridis
  GR50: 6.77 g a.i./ha
  GR90: 19.04 g a.i./ha
Cirsium setosum
  GR50: 15.14 g a.i./ha
  GR90: 48.92 g a.i./ha
Eclipta prostrata
  GR50: 4.67 g a.i./ha
  GR90: 23.27 g a.i./ha
Acalypha australis
  GR50: 6.04 g a.i./ha
  GR90: 16.46 g a.i./ha
Convolvulus arvensis
  GR50: 7.31 g a.i./ha
  GR90: 58.43 g a.i./ha

## Cc1c(C(=O)c2cnn(C)c2O)ccc(S(C)(=O)=O)c1C1=NOCC1 [Topramezone]
[1]
  Symptoms on the test weeds: clear pesticidal efficacy symptoms
[2]; [3]
  Visual observation of weeds: gradually became whitened and withered
[2]; 10 days after application
  Visual observation of weeds: excellent treatment effects
[2]; 20 days after application
  Visual observation of weeds: dried up and died
Chloris virgata
  GR50: 3.33 g a.i./ha
  GR90: 15.81 g a.i./ha
Amaranthus retroflexus
  GR50: 4.05 g a.i./ha
  GR90: 11.29 g a.i./ha
Cyperus rotundus
  GR50: 16.11 g a.i./ha
  GR90: 39.22 g a.i./ha
Commelina communis
  GR50: 14.38 g a.i./ha
  GR90: 40.29 g a.i./ha
Chenopodium album
  GR50: 3.22 g a.i./ha
  GR90: 12.76 g a.i./ha
Setaria viridis
  GR50: 6.72 g a.i./ha
  GR90: 19.16 g a.i./ha
Cirsium setosum
  GR50: 15.89 g a.i./ha
  GR90: 49.41 g a.i./ha
Eclipta prostrata
  GR50: 6.33 g a.i./ha
  GR90: 23.72 g a.i./ha
Acalypha australis
  GR50: 5.27 g a.i./ha
  GR90: 16.92 g a.i./ha
Convolvulus arvensis
  GR50: 4.63 g a.i./ha
  GR90: 66.46 g a.i./ha
